The test system of the first test is HeLa. The experiment in a line: Antiproliferative activity against human HeLa cells assessed as reduction in cell viability incubated for 24 hrs by MTT assay. In kind it is functional, cell-based.
Conditions: not given
In the case of `C/C=C/C1=CC2=CC3=C(C(=O)CCCCC)C(=O)O[C@@]3(C)C(=O)C2=CO1`, the concentration for half-maximal inhibition (IC50) stood at 93.7 µM.

Another test relates to HT-29. Briefly: Antiproliferative activity against human HT-29 cells assessed as reduction in cell viability incubated for 24 hrs by MTT assay. Type of test: functional, cell-based. The settings on record: HT-29, 24 h.
For `C/C=C/C1=CC2=CC3=C(C(=O)CCCCC)C(=O)O[C@@]3(C)C(=O)C2=CO1`, the half-inhibitory concentration (IC50) was determined as 36.7 µM.

In another test the test system is BGC-823. Briefly: Antiproliferative activity against human BGC-823 cells assessed as reduction in cell viability incubated for 24 hrs by MTT assay. Type of test: functional, cell-based. The settings on record: BGC-823, 24 h.
Consider `C/C=C/C1=CC2=CC3=C(C(=O)CCCCC)C(=O)O[C@@]3(C)C(=O)C2=CO1`, for which the concentration for half-maximal inhibition (IC50) turned out to be 12.6 µM.

Another test deals with HeLa. Briefly: Antiproliferative activity against human HeLa cells assessed as reduction in cell viability incubated for 24 hrs under light irradiation by MTT assay. In kind it is functional, cell-based. The settings on record: light or radiation study.
With `C/C=C/C1=CC2=CC3=C(C(=O)CCCCC)C(=O)O[C@@]3(C)C(=O)C2=CO1`, the half-maximal inhibitory concentration (IC50) stood at 24 µM.

In a further test the test system is WiDr. The experiment in a line: Antiproliferative activity against human WiDr cells assessed as reduction in cell viability incubated for 72 hrs by MTT assay. Type of test: functional, cell-based.
Conditions: not given
Take `C/C=C/C1=CC2=CC3=C(C(=O)CCCCC)C(=O)O[C@@]3(C)[C@@H](O)C2=CO1`: the concentration for half-maximal inhibition (IC50) came to 15.7 µM.
The same measure, in the same setting: the value for `C/C=C/C1=CC2=CC3=C(C(=O)CCCCCCC)C(=O)O[C@@]3(C)[C@@](O)(CC(C)=O)C2=CO1` was 11 µM; that for `C/C=C/C1=CC2=CC3=C(C(=O)CCCCC)C(=O)O[C@@]3(C)[C@@](O)(CC(C)=O)C2=CO1` was 10.5 µM; that for `C/C=C/C1=CC2=CC3=C(C(=O)CCCCC)C(=O)O[C@@]3(C)C(=O)C2=CO1` was 109 µM.
The same measure, in the same setting: the value for `C/C=C/C1=CC2=CC3=C(C(=O)CCCCCCC)C(=O)O[C@@]3(C)[C@@H](O)C2=CO1` was 8.6 µM.

Another test deals with RAW264.7. Briefly: Antiinflammatory activity against mouse RAW264.7 cells assessed as inhibition of LPS-NO production incubated for 24 hrs by Griess reagent based assay. Type of test: functional, cell-based. The settings on record: RAW264.7, 24 h.
On to `C/C=C/C1=CC2=CC3=C(C(=O)CCCCC)C(=O)O[C@@]3(C)[C@@H](O)C2=CO1`, for which the IC50 was found to be 3.65 µM.
On the same count and under the same terms, the value for `C/C=C/C1=CC2=CC3=C(C(=O)CCCCCCC)C(=O)O[C@@]3(C)[C@@](O)(CC(C)=O)C2=CO1` was 2.72 µM; that for `C/C=C/C1=CC2=CC3=C(C(=O)CCCCC)C(=O)O[C@@]3(C)[C@@](O)(CC(C)=O)C2=CO1` was 1.7 µM.
As to `C/C=C/C1=CC2=CC3=C(C(=O)CCCCC)C(=O)O[C@@]3(C)C(=O)C2=CO1`, the IC50 came out at 21.2 µM.
For `C/C=C/C1=CC2=CC3=C(C(=O)CCCCCCC)C(=O)O[C@@]3(C)[C@@H](O)C2=CO1`, the IC50 was 0.99 µM.

Another test has as its system MKN-45. The experiment in a line: Antiproliferative activity against human MKN-45 cells assessed as reduction in cell viability incubated for 24 hrs by MTT assay. The settings on record: MKN-45, 24 h. In kind it is functional, cell-based.
As to `C/C=C/C1=CC2=CC3=C(C(=O)CCCCC)C(=O)O[C@@]3(C)C(=O)C2=CO1`, the IC50 came to 14.3 µM.

A further test has as its system HEp-2. The experiment in a line: Antiproliferative activity against human HEp-2 cells assessed as reduction in cell viability incubated for 72 hrs by MTT assay. In kind it is functional, cell-based. The settings on record: HEp-2, 72 h.
Consider `C/C=C/C1=CC2=CC3=C(C(=O)CCCCC)C(=O)O[C@@]3(C)[C@@H](O)C2=CO1`, for which the half-maximal inhibitory concentration (IC50) was found to be 14.8 µM.
On to `C/C=C/C1=CC2=CC3=C(C(=O)CCCCCCC)C(=O)O[C@@]3(C)[C@@](O)(CC(C)=O)C2=CO1`, for which the IC50 is 8.7 µM.
The same measure, in the same setting: under `C/C=C/C1=CC2=CC3=C(C(=O)CCCCC)C(=O)O[C@@]3(C)[C@@](O)(CC(C)=O)C2=CO1` stands 10.4 µM; under `C/C=C/C1=CC2=CC3=C(C(=O)CCCCC)C(=O)O[C@@]3(C)C(=O)C2=CO1`, 107 µM; under `C/C=C/C1=CC2=CC3=C(C(=O)CCCCCCC)C(=O)O[C@@]3(C)[C@@H](O)C2=CO1`, 9.8 µM.

For the next test, the system named is SH-SY5Y. The experiment in a line: Antiproliferative activity against human SH-SY5Y cells assessed as reduction in cell viability incubated for 24 hrs by MTT assay. In kind it is functional, cell-based.
Conditions: not given
For `C/C=C/C1=CC2=CC3=C(C(=O)CCCCC)C(=O)O[C@@]3(C)C(=O)C2=CO1`, the concentration for half-maximal inhibition (IC50) was found to be 30.9 µM.

Another test relates to AGS. Briefly: Antiproliferative activity against human AGS cells assessed as reduction in cell viability incubated for 24 hrs by MTT assay. In kind it is functional, cell-based.
Conditions: not given
Regarding `C/C=C/C1=CC2=CC3=C(C(=O)CCCCC)C(=O)O[C@@]3(C)C(=O)C2=CO1`, the half-maximal inhibitory concentration (IC50) is 7.98 µM.

In the next test the test system is HepG2. Briefly: Antiproliferative activity against human HepG2 cells assessed as reduction in cell viability incubated for 24 hrs by MTT assay. The settings on record: HepG2, 24 h. In kind it is functional, cell-based.
In the case of `C/C=C/C1=CC2=CC3=C(C(=O)CCCCC)C(=O)O[C@@]3(C)C(=O)C2=CO1`, the concentration for half-maximal inhibition (IC50) was determined as 44.2 µM.

These data come from ChEMBL document CHEMBL6103583, “Purified Monascus Pigments: Biological Activities and Mechanisms of Action” (J Nat Prod, 2025).
